The values below come from ChEMBL document CHEMBL1201862, “PubChem BioAssay data set” (2004).

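Briefly, cells in 96-well plates were exposed to five compound concentrations for 48 h, and endpoints were estimated by linear interpolation. Here, GI50 denotes the concentration required for 50% inhibition of growth.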 Activity calls are given as the source filed them. No stated cut-off is given here; in the data, active = GI50 up to about 1.1 µM and inactive = higher. A value given as a limit tells only on which side of the number the result lay.

What all share (test): inhibition of tumour cell growth, NCI panel, 48 h
Experiment [1] has as its system MCF7.
Experiment [2] concerns HT-29.
In experiment [3] the test system is SN12C.
For experiment [4], the system named is MDA-MB-231.
Experiment [5] relates to SF-295.
For experiment [6], the system named is EKVX.
In experiment [7] the test system is BT-549.
In experiment [8] the test system is DU-145.
Experiment [9] deals with A549.
Experiment [10] deals with SF-539.
Experiment [11] relates to OVCAR-4.
Experiment [12] concerns SW-620.
In experiment [13] the test system is SR.
Experiment [14] deals with K562.
The test system of experiment [15] is NCI-H226.
Experiment [16] deals with TK-10.
In experiment [17] the test system is MOLT-4.
In experiment [18] the test system is SK-MEL-5.
The test system of experiment [19] is A498.
The subject of experiment [20] is CCRF-CEM.

In the case of `O=C(CCN1CCOCC1)Nc1ccc(F)cc1F`, the GI50 in experiment [1], in experiment [2], in experiment [3], in [4], in experiment [5] and in experiment [6] was > 100 µM (inactive) each time. Moreover, the GI50 in experiment [7], in experiment [8], in [9], in [10], in experiment [11] and in experiment [12] was > 100 µM (inactive) throughout. Moreover, the GI50 in experiment [13], in [14], in [15], in experiment [16], in [17] and in experiment [18] was > 100 µM (inactive) in each case. In addition, in experiment [19], the GI50 is > 100 µM (inactive).
With `CCCCC/N=C/c1c(O)c(O)c(C(C)C)c2cc(C)c(-c3c(C)cc4c(C(C)C)c(O)c(O)c(/C=N/CCCCC)c4c3O)c(O)c12`, the GI50 was 4.81 µM (inactive) in [1]; 2.88 µM (inactive) in [2]; 25.2 µM (inactive) in experiment [20]; 7.94 µM (inactive) in experiment [3]; 7.43 µM (inactive) in [4]; 7.96 µM (inactive) in [6]. In addition, the GI50 was 7.87 µM (inactive) in experiment [7]; 19.5 µM (inactive) in experiment [8]; 5.58 µM (inactive) in [9]; 6.08 µM (inactive) in [10]; 6.97 µM (inactive) in experiment [12]; 4.24 µM (inactive) in experiment [13]. Moreover, the GI50 in experiment [14] is 4.25 µM (inactive); in experiment [15], 23 µM (inactive); in [16], 15 µM (inactive); in [18], 6.3 µM (inactive); in experiment [19], 27.3 µM (inactive).
As for `CC(C)C1OC(/C=C/c2ccccc2)OCC1(C)C` (stereo unspecified), the GI50 in experiment [1] was 31.8 µM (inactive); in experiment [2], 27.7 µM (inactive); in experiment [20], 20.9 µM (inactive); in experiment [3] it was 21.6 µM (inactive); in experiment [4], 36.4 µM (inactive); in experiment [5], 31 µM (inactive). Further, the GI50 is 27.5 µM (inactive) in experiment [6]; 36.1 µM (inactive) in [7]; 37.2 µM (inactive) in experiment [8]; 29.9 µM (inactive) in experiment [9]; 33.6 µM (inactive) in [11]; 30.7 µM (inactive) in [12]. Further, the GI50 is 30.1 µM (inactive) in experiment [13]; 25.4 µM (inactive) in [14]; 23.5 µM (inactive) in [15]; 35.1 µM (inactive) in experiment [16]; 17.7 µM (inactive) in experiment [18]; 24 µM (inactive) in [19].
In the case of `c1ccc(C(CCN2CCCC2)c2ccccn2)cc1` (stereo unspecified), the GI50 in experiment [1], in experiment [2], in [3], in experiment [4], in [5] and in experiment [6] was > 100 µM (inactive) throughout. For the same compound, the GI50 in experiment [7] is > 100 µM (inactive); in [8], > 100 µM (inactive); in [9], > 100 µM (inactive); in [11] it was > 100 µM (inactive); in experiment [12], > 100 µM (inactive); in experiment [13], < 0.01 µM (active). Moreover, the GI50 in [14], in experiment [15], in experiment [16], in [18] and in experiment [19] was > 100 µM (inactive) each time.
`Oc1ccc2c3c1OC1c4[nH]c5c(c4CC4(O)C(C2)N(CC2CC2)CC[C@]314)CC1(O)C2Cc3ccc(O)c4c3[C@@]1(CCN2CC1CC1)C5O4` (stereo partly specified): the GI50 in experiment [1] was 34.7 µM (inactive); in experiment [2], 20 µM (inactive); in [3], 35 µM (inactive); in experiment [4], 24.4 µM (inactive); in experiment [5] it was 19.6 µM (inactive); in experiment [6], 35.6 µM (inactive). Also, the GI50 in experiment [7] is > 100 µM (inactive); in experiment [8] it was 37.2 µM (inactive); in experiment [9], 18.6 µM (inactive); in [11], 29.8 µM (inactive); in experiment [12] it was 21.9 µM (inactive); in experiment [13], 27.4 µM (inactive). Further, the GI50 in experiment [14] was 25.4 µM (inactive); in [15], 27.8 µM (inactive); in experiment [16], 21.2 µM (inactive); in experiment [17], 22.4 µM (inactive); in experiment [18], 44 µM (inactive); in experiment [19] it was 17.5 µM (inactive).
Take `Clc1ccc(CCNCCNC2(c3cc4ccccc4s3)CCCCC2)cc1Cl`: the GI50 in experiment [1] is 1.71 µM (inactive); in experiment [2], 1.83 µM (inactive); in [20], 2.54 µM (inactive); in experiment [3], 1.96 µM (inactive); in [4] it was 1.78 µM (inactive); in experiment [5] it was 1.59 µM (inactive). Besides, the GI50 in experiment [6] is 2.08 µM (inactive); in experiment [7], 1.94 µM (inactive); in [8], 1.88 µM (inactive); in experiment [9], 1.81 µM (inactive); in experiment [11], 1.64 µM (inactive); in [12] it was 1.86 µM (inactive). Also, the GI50 in [13] was 2.02 µM (inactive); in [14] it was 2.31 µM (inactive); in experiment [15], 1.87 µM (inactive); in experiment [16], 1.7 µM (inactive); in experiment [17] it was 2.49 µM (inactive); in experiment [18], 1.72 µM (inactive). For the same compound, in experiment [19], the GI50 is 1.78 µM (inactive).
As to `CCOC(=O)c1ccc2nc(NC(=O)COC(=O)CSc3nc(C)cc(C)n3)sc2c1`, the GI50 is 35.9 µM (inactive) in experiment [1]; 66.2 µM (inactive) in experiment [2]; 1.52 µM (inactive) in experiment [20]; 39 µM (inactive) in experiment [3]; 66.4 µM (inactive) in [4]; 36.6 µM (inactive) in experiment [5]. Moreover, the GI50 in experiment [6] is 18.5 µM (inactive); in [7], 31.2 µM (inactive); in [8], 28.3 µM (inactive); in experiment [9], 42.9 µM (inactive); in [10], 26.1 µM (inactive); in [11] it was 42.9 µM (inactive). For the same compound, the GI50 is > 100 µM (inactive) in [12]; 52.7 µM (inactive) in [13]; > 100 µM (inactive) in experiment [14]; 29.3 µM (inactive) in [16]; 42.5 µM (inactive) in [17]; 53.3 µM (inactive) in experiment [18]. Further, the GI50 in [19] is 34 µM (inactive).
Turning to `C=CCN1C[C@@H](C)N([C@@H](c2ccc(C(=O)N(CC)CC)cc2)c2cccc(OC)c2)C[C@@H]1C`, the GI50 was 49.8 µM (inactive) in [1]; > 100 µM (inactive) in experiment [2]; 3.7 µM (inactive) in [20]; > 100 µM (inactive) in experiment [3]; > 100 µM (inactive) in [4]; > 100 µM (inactive) in experiment [5]. Also, the GI50 in experiment [6], in [7], in experiment [8], in [9], in experiment [10] and in experiment [11] was > 100 µM (inactive) in each case. In addition, the GI50 in experiment [12], in [13], in experiment [14], in [15], in experiment [17] and in [18] was > 100 µM (inactive) each time. For the same compound, the GI50 in [19] was > 100 µM (inactive).
